# According to patent publication EP0034752A1, “Phenoxyalkane derivative and processes for preparing same” (Tanabe Seiyaku Co., Ltd., priority 1980, dated 1981):
# How the values were obtained:
# [1] = Maximum tolerated dose, i.p.; design: species or system mice; details: mouse, in vivo, ip
# [2] = tested on: central nervous system in mice; test: Effect on spontaneous motor activity in mice; format: in vivo; details: Mus musculus, ip, 0.5 h; i.p., male mice; activity measured 30 minutes after administration; dose decreasing activity by 50 % of control; read-out: Effect on central nervous system (ED50, mg/kg) spontaneous mortor activity
# Method: (§1) The effect of a test compound on central nervous system was examined by the following methods.
# (1) Effect on spontaneous mortor activity:
# A solution or suspension of a test compound in water or an aqueous carboxymethylcellulose solution was administered intraperitoneally to male mice weighing 18 to 20 g (each group consisting of 5 mice). Thirty minutes after administration of the test compound, the spontaneous mortor activity of the mice was measured with an animex activity meter for 5 minutes. The 50 % effective dose (ED50) of the test compound was estimated in terms of a dose which is necessary to decrease the mortor activity of the medicated mice by 50 % of that of a control group (i.e., non-medicated mice).
# [3] = tested on: central nervous system in mice; test: Effect on sodium hexobarbital-induced anesthesia in mice; format: in vivo; details: Mus musculus, ip, 0.5 h, male mice; sodium hexobarbital 100 mg/kg i.p. 30 minutes later; dose prolonging sleeping time twice that of control
# Method: as §1
# (2) Effect on sodium hexobarbital-induced anesthesia:
# A solution or suspension of a test compound in water or an aqueous carboxymethylcellulose solution was administered intraperitoneally to male mice weighing 18 to 20 g (each group consisting of 5 mice). Thirty minutes after intraperitoneal administration of the test compound, sodium hexobarbital (100 mg/kg) was administered intraperitoneally to the mice, and the sleeping time was measured as the interval between the loss and recovery of the righting reflex. The 50.% effective dose (ED50) of the test compound was estimated in terms of dose which is necessary to prolong the sleeping time of the medicated mice twice as long as that of a control group (i.e., non-medicated mice).
# [4] = tested on: central nervous system in mice; test: Anti-apomorphine activity (cage climbing) in mice; format: in vivo; details: Mus musculus, ip, 0.5 h; i.p., male mice; apomorphine hydrochloride 2.5 mg/kg s.c. 30 minutes later; dose decreasing number of climbing mice by 50 %; read-out: Effect on central nervous system (ED50, mg/kg) Anti-apomorphine activity
# Method: as §1
# (3) Anti-apomorphine activity:
# A solution or suspension of a test compound in water or an aqueous carboxymethylcellulose solution was administered intraperitoneally to male mice weighing 18 to 20 g (each group consisting of 5 mice). Thirty minutes after administration of the test compound, apomorphine hydrochloride (2.5 mg/kg) was administered subcutaneously to the mice, and the number of the mice which could climb a cage was examined. The 50 % effective dose (ED50) of the test compound was estimated in terms of a dose which is necessary to decrease the number of the medicated mice which could climb the cage by 50 % of the number of a control group (i.e., non-medicated mice) which could climb the cage.
# [5] = tested on: intracranial pressure in rats; test: Effect of i.v. injection of test compounds on intracranial pressure in rats; format: in vivo; details: for Change (%) in intra-cranial pressure: dose one mg/kg, i.v. infusion in 5 w/v % mannitol, anesthetized male SD-rats, value before administration = 100
# Method: (Effect of i.v., injection of test compounds on intracranial pressure in rats)
# Male SD-rats weighing 500 to 800 g (each group consisting of 5 rats) were anesthetized with urethane. A solution of a test compound in an aqueous 5 w/v % mannitol solution was infused via the femoral vein at a rate of 0.2 ml/kg/minute for 20 minutes (when the test compound was used in the form of free base, said solution was prepared by dissolving it in an aqueous 5 w/v % mannitol solution with the aid of 0.5 N hydrochloric acid). Intracranial pressure (i.e., cerebrospinal fluid pressure in the cisterna magna) was continuously monitored via a canula introduced in the cisterna magna. The canula was connected to a transducer, and recording were made on graph paper. The effect of the test compound on-the intracranial pressure was estimated in terms of the increase or decrease in intracranial pressure, which was calculated in accordance with the following formula: […]
# [6] = 40 minutes after administration
# [7] = 60 minutes after administration
# [8] = 120 minutes after administration
SMILES,MTD [1] [mg/kg],ED50 [2] [mg/kg],ED50 [3] [mg/kg],ED50 [4] [mg/kg],"Change (%) in intra-cranial pressure [5, 6] [%]","Change (%) in intra-cranial pressure [5, 7] [%]","Change (%) in intra-cranial pressure [5, 8] [%]","decrease in the intracranial pressure ([5]; 40 minutes after administration, dose 1 mg/kg, infused via the femoral vein of rats in 5 w/v % mannitol for 20 minutes)"
COc1cc(NC(C)=O)ccc1COCCCN1CCN(c2ccccc2)CC1 [1-(4-acetamido-2-methoxybenzyloxy)-3-(4-phenylpiperazino)-n-propane],100,5,10,7,–,–,–,–
COc1cc(NC(C)=O)ccc1OCC(C)CN1CCN(c2ccccc2)CC1 (centres unmarked) [1-(4-acetamido-2-methoxyphenoxy)-3-(4-phenylpiperazino)-2-methyl-n-propane],–,–,–,–,66.4,73.8,83.8,–
COc1cc(NC(C)=O)ccc1OCCCN1CCC(O)(c2ccc(Cl)cc2)CC1 [1-(4-acetamido-2-methoxyphenoxy)-3-[4-(4-chlorophenyl)-4-hydroxy-piperidino]-n-propane],–,–,–,–,94.2,95.4,90.7,–
CC(=O)Nc1ccc(COCCCN2CCN(c3ccccc3)CC2)cc1 [1-(4-acetamidobenzyloxy)-3-(4-phenylpiperazino)-n-propane],–,–,–,–,77.0,83.1,97.9,about 23%
